Consider one molecule from patent US20040152666A1, “Methods of reducing complications associated with peritoneal dialysis in patients with diabetes obesity and/or hyperlipidemia” (priority 2002, published 2004).

Series [1] concerns rats. Kind of series: Acute peritoneal dialysis in rats with NAG-based or glucose-based dialysis fluid. It is filed as in vivo, rat. The method, then:
Peritoneal transport kinetics as well as blood insulin and glucose levels were evaluated in rats during acute peritoneal dialysis. Peritoneal dialysis fluids tested in the studies described herein were prepared in the laboratory and sterilized by filtration. Electrolyte and buffer compositions of both solutions were identical, similar to those contained in commercially available fluids. Concentrations of the individual solutes were as follows (mmol/l): Na 132, Ca 1.75, Mg 0.75, Cl 102, lactate 35. Glucose or NAG were used as osmotic solutes, both in a concentration of 220 mmol/l. Osmolality of the glucose-based dialysis fluid was 478 mOsm/kg H20 and of the solution containing NAG 476 mOsm/kg H2O; pH of the studied fluids was 7.02 and 7.03, respectively.
Acute peritoneal dialysis was performed in male Wistar rats (b.w.270-330 g) according to the methods described previously (see ref. 10 below). For 24 hours prior to the experiments, animals were given only drinking water and no food. At the beginning of the study, under ether anesthesia, blood samples were collected from the tail vein and thereafter 20 ml of the dialysis fluid was infused via a polyvinyl catheter (1.2 gauge; Vygon, Helsingborg, Sweden); the catheter was instantly removed after infusion. Thereafter the rats were transferred to individual cages, signs of anesthesia disappeared within 5 minutes. Dialysis fluid dwelled in the peritoneal cavity for 1 hour, 3 hours or 6 hours. 12 animals were studied at each time interval: 6 in the NAG group and 6 in the glucose group. During the dialysis animals were conscious with free access to drinking water but no food. At the end of the dwell time rats were again anesthetized with ether, blood samples were collected from the heart and then animals were sacrificed by exsanguination from heart. Afterwards the peritoneal cavity was opened and the dialysate was collected with a pipette. Dialysate volume was measured by weight. Blood and dialysate samples were centrifuged (1500 rpm for 10 minutes) and serum or dialysate supernatant were stored at −20° C. for further analysis. In dialysate samples drained after 6 hrs dwell cell count was determined in a Neubauer chamber.
Serum and dialysate samples were analyzed for creatinine (enzymatic test, Analco, Warsaw) and total protein were analyzed using Lowry method (11). Sodium concentration in the unused dialysis fluid and dialysate was measured with flame photometry (Eppendorf, Germany). Glucose concentration in serum was measured with an enzymatic test (Sigma Chemical, St.Louis, Mo., U.S.A.). Insulin concentration in serum was measured with ELISA kit (Mercodia, Uppsala, Sweden). Hyaluronan concentration in the dialysate samples was measured with ELISA (Chugai, Japan). Sodium sieving and permeability coefficient for creatinine were calculated for exchanges with 1 hour dwell. Results are presented as mean±SD. Statistical analysis was performed with Mann-Whitney test for unpaired data. A p value less than 0.05 was considered significant.

The conditions of series [2]: intraperitoneal infusion of radiolabeled NAG (ref. 19); cited from earlier work.
The subject of series [3] is human peritoneal mesothelial cells. The note with it: in vitro, culture medium supplemented with NAG, within six hours (ref. 12); cited from earlier work.

For `CC(=O)N[C@H]1C(O)O[C@H](CO)[C@@H](O)[C@@H]1O` (stereo partly shown) [NAG, N-acetylglucosamine], the “dialysate cell count (intraperitoneal inflammation)” value in series [1] (rat, in vivo, ip) was found to be 945±251 cells/μl. Also, the “dialysate volume compared with glucose-based solution” value in series [1] (rats, 1 and 3 hrs exchange) is reported as “higher”. The “sodium sieving (D/D0)” value in series [1] (rats, 1 hour exchange, mean±SD) was 0.955±0.034. In addition, the “increase of blood insulin level after 3 hours dialysis” value in series [1] (rats, 3 hours dialysis, mean±SD) was found to be 4.5 ± 4.7 pmol/L. The same molecule displayed an end dialysate volume in series [1] (rats, 6 hour dwell, osmotic solute 220 mmol/l, 20 ml infused, mean±SD) of 34.5 ± 1.7 mL. Moreover, the “peritoneal permeability to total protein, dialysate/serum ratio×1000 (D/S×1000)” value in series [1] (rats, 6 hrs dwell, osmotic solute 220 mmol/l, mean±SD) was found to be 9.7±2.5. For the same molecule, the “increase of blood glucose level” value in series [1] (rats, after 1 hour dwell of NAG dialysis fluid) was 39%; in series [1] (rats, after 3 hours dwell of NAG dialysis fluid), 54%; in series [1] (rats, after 6 hours dwell of NAG dialysis fluid), 116%. Further, the “increase in blood insulin level, times weaker than with dialysis fluid containing glucose” value in series [1] (rats, after 3 hours dialysis) is “about 12 times”. For the same molecule, the “hyaluronan concentration in the dialysate” value in series [1] (rats, dialysate after 6 hrs dwell, mean±SD) was found to be 60.3 ± 7.8 ng/mL. In series [1] (rats, osmotic solute 220 mmol/l, dwell 1, 3 or 6 hours, mean±SD), the “blood glucose concentration, highest observed during dialysis” value came to 91 ± 9 mg/dL. Further, the “increase of blood insulin level (maximal) during dialysis” value in series [1] (rats, osmotic solute 220 mmol/l, mean±SD) amounted to 5.0 ± 5.4 pmol/L. Moreover, in series [2], the “appearance of the tracer in the exhaled air” value is recorded as “about 25%”. For the same molecule, in series [2], the “appearance of the tracer in urine” value was “about 20%”. Further, in series [3], the synthesis of hyaluronan result was “increase within six hours synthesis of hyaluronan”.
